The record followed here is ChEMBL document CHEMBL2062494, “Synthesis and biochemical evaluation of thiochromanone thiosemicarbazone analogues as inhibitors of cathepsin L” (ACS Med Chem Lett, 2012).

One assay has as its target Cathepsin B (Homo sapiens, UniProt P07858). Briefly: Inhibition of human liver cathepsin B using Z-R-R-AMC as substrate preincubated with compound for 5 mins measured after 20 mins by fluorescence analysis.
The next assay has as its target Procathepsin L (Homo sapiens, UniProt P07711). As to the kind of experiment: Inhibition of human liver cathepsin L using Z-R-R-AMC as substrate preincubated with compound for 5 mins measured after 20 mins by fluorescence analysis.

Sequence of Procathepsin L (P07711 whole entry): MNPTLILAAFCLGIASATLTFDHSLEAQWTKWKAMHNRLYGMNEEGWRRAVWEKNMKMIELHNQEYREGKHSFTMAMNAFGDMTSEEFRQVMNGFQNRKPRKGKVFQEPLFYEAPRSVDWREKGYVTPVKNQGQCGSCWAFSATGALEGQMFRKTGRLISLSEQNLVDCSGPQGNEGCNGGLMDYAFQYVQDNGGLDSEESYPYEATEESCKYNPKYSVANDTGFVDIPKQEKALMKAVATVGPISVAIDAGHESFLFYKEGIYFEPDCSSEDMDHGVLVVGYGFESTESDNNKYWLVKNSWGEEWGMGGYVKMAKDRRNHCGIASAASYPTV

As to `NC(=S)N/N=C1\CCSc2ccc(Cl)cc21`, the IC50 (in general, the concentration needed to halve the response being measured) at Cathepsin B is above 10 µM; at Procathepsin L it was 0.228 µM.

In the case of `NC(=S)N/N=C1\CCSc2c(OC(F)(F)F)cccc21`, the half-maximal inhibitory concentration (IC50) on Cathepsin B and on Procathepsin L was above 10 µM throughout.

`NC(=S)N/N=C1\CCSc2ccc(F)cc21`: the IC50 at Cathepsin B was above 10 µM; at Procathepsin L, 0.741 µM.

As to `NC(=S)N/N=C1\CCSc2ccc(Br)cc21`, the results for the IC50 on Cathepsin B and on Procathepsin L were above 10 µM and 0.152 µM, respectively.

As to `NC(=S)N/N=C1\CCSc2cc(F)c(F)cc21`, the IC50 on Cathepsin B is above 10 µM; on Procathepsin L, 0.046 µM.

As for `NC(=S)N/N=C1\CCSc2c(F)cc(F)cc21`, the IC50 is above 10 µM at Cathepsin B and 1.5 µM on Procathepsin L.

As to `NC(=S)N/N=C1\CCSc2c(Br)cc(F)cc21`, the IC50 on Cathepsin B and at Procathepsin L was above 10 µM each time.

As for `NC(=S)N/N=C1\CCSc2c(F)cc(Br)cc21`, the half-maximal inhibitory concentration (IC50) on Cathepsin B is above 10 µM; at Procathepsin L it was 0.434 µM.

On to `Cc1ccc2c(c1)/C(=N/NC(N)=S)CCS2`, for which the results for the half-maximal inhibitory concentration (IC50) at Cathepsin B and on Procathepsin L were above 10 µM and 0.214 µM, respectively.

On to `CCc1ccc2c(c1)/C(=N/NC(N)=S)CCS2`, for which the IC50 at Cathepsin B is above 10 µM; at Procathepsin L it was 2.72 µM.

Regarding `CC(C)c1ccc2c(c1)/C(=N/NC(N)=S)CCS2`, the half-inhibitory concentration (IC50) on Cathepsin B and at Procathepsin L was above 10 µM in each case.

`COc1ccc2c(c1)/C(=N/NC(N)=S)CCS2`: the half-inhibitory concentration (IC50) on Cathepsin B and at Procathepsin L was above 10 µM each time.

For `CSc1ccc2c(c1)/C(=N/NC(N)=S)CCS2`, the IC50 at Cathepsin B and at Procathepsin L was above 10 µM throughout.

Regarding `NC(=S)N/N=C1\CCSc2ccc(C(F)(F)F)cc21`, the IC50 is above 10 µM on Cathepsin B and 0.284 µM on Procathepsin L.

As to `NC(=S)N/N=C1\CCSc2ccc(OC(F)(F)F)cc21`, the values for the IC50 on Cathepsin B and on Procathepsin L were above 10 µM and 0.256 µM, respectively.

For the molecule `NC(=S)N/N=C1\CCSc2ccc(O)cc21`, the IC50 at Cathepsin B and at Procathepsin L was above 10 µM each time.

Take `NC(=S)N/N=C1\CCSc2ccc([N+](=O)[O-])cc21`: the figures for the 50% inhibitory concentration (IC50) on Cathepsin B and on Procathepsin L were above 10 µM and 0.068 µM, respectively.

For `CC(=O)Nc1ccc2c(c1)/C(=N/NC(N)=S)CCS2`, the IC50 on Cathepsin B and at Procathepsin L was above 10 µM in each case.

With `NC(=S)N/N=C1\CCSc2ccc3ccccc3c21`, the IC50 on Cathepsin B and on Procathepsin L was above 10 µM throughout.

For the molecule `NC(=S)N/N=C1\CCS(=O)(=O)c2ccc(F)cc21`, the IC50 on Cathepsin B and at Procathepsin L was above 10 µM throughout.

As to `NC(=S)N/N=C1\CCS(=O)(=O)c2ccc(Cl)cc21`, the concentration for half-maximal inhibition (IC50) at Cathepsin B and at Procathepsin L was above 10 µM in each case.

Take `NC(=S)N/N=C1\CCS(=O)(=O)c2cc(F)c(F)cc21`: the IC50 at Cathepsin B was above 10 µM; on Procathepsin L, 3.65 µM.

In the case of `NC(=S)N/N=C1\CCS(=O)(=O)c2c(F)cc(F)cc21`, the 50% inhibitory concentration (IC50) at Cathepsin B and on Procathepsin L was above 10 µM throughout.

Regarding `NC(=S)N/N=C1\CCS(=O)(=O)c2c(Br)cc(F)cc21`, the half-maximal inhibitory concentration (IC50) at Cathepsin B and at Procathepsin L was above 10 µM each time.

Consider `NC(=S)N/N=C1\CCS(=O)(=O)c2c(F)cc(Br)cc21`, for which the IC50 on Cathepsin B was above 10 µM; on Procathepsin L, 1.12 µM.

As for `Cc1ccc2c(c1)/C(=N/NC(N)=S)CCS2(=O)=O`, the 50% inhibitory concentration (IC50) on Cathepsin B and at Procathepsin L was above 10 µM each time.

For `CCc1ccc2c(c1)/C(=N/NC(N)=S)CCS2(=O)=O`, the IC50 is above 10 µM on Cathepsin B and 6.52 µM at Procathepsin L.

For the molecule `CC(C)c1ccc2c(c1)/C(=N/NC(N)=S)CCS2(=O)=O`, the IC50 at Cathepsin B and at Procathepsin L was above 10 µM in each case.

For the molecule `COc1ccc2c(c1)/C(=N/NC(N)=S)CCS2(=O)=O`, the half-maximal inhibitory concentration (IC50) on Cathepsin B and on Procathepsin L was above 10 µM in each case.

Take `NC(=S)N/N=C1\CCS(=O)(=O)c2ccc(C(F)(F)F)cc21`: the figures for the IC50 at Cathepsin B and at Procathepsin L were above 10 µM and 0.26 µM, respectively.

Consider `NC(=S)N/N=C1\CCS(=O)(=O)c2ccc(OC(F)(F)F)cc21`, for which the figures for the half-inhibitory concentration (IC50) on Cathepsin B and on Procathepsin L were above 10 µM and 3.96 µM, respectively.

On to `NC(=S)N/N=C1\CCS(=O)(=O)c2ccc([N+](=O)[O-])cc21`, for which the IC50 is above 10 µM at Cathepsin B and 0.112 µM at Procathepsin L.

Regarding `CC(=O)Nc1ccc2c(c1)/C(=N/NC(N)=S)CCS2(=O)=O`, the IC50 on Cathepsin B and on Procathepsin L was above 10 µM in each case.

With `NC(=S)N/N=C1\CCS(=O)(=O)c2ccc(Br)cc21`, the IC50 on Cathepsin B was above 10 µM; at Procathepsin L, 0.574 µM.

Take `NC(=S)NN=C1CCSc2ccc(N)cc21` (mixture of isomers): the IC50 on Cathepsin B and at Procathepsin L was above 10 µM in each case.

As to `NC(=S)NN=C1CCS(=O)(=O)c2ccc(O)cc21` (mixture of isomers), the IC50 on Cathepsin B and at Procathepsin L was above 10 µM throughout.
